According to patent publication US20260137662A1, “CD11B AGONISTS FOR TREATMENT OF AUTOIMMUNE DISEASE” (Rush University Medical Center, priority 2022, published 2026):

Columns and labels:
[1] = test system: TLR-stimulation dependent pro-inflammatory pathways; test: suPAR and TNFa secretion from myeloid (RAW) cells stimulated with TLR-stimulants or PMA (ELISA); format: cell-based, murine; conditions: co-treatment TLR-stimulant (LPS, PMA, Pam2CSK4, Pam3CSK4, IMQ) and LA1 (20 uM), 4 hours
Protocol: (§1) FIG. 2A illustrates the levels of biomarker suPAR secretion from RAW cells after treatment with LPS (50ng/ml), PMA (0.1 ug/mL), Pam2CSK4 (0.1 ug/mL), Pam3CSK4 (0.1 ug/mL), Imiquimod (IMQ) (20 ug/mL), LA1 (20 uM), or co-treatments. Bars show mean with SD (N=3) (*P<0.05, **P<0.01, ***P<0.001, ****P<0.0001).
as §1, with “2B” for “2A”, “biomarker (A)” for “biomarker”, “suPAR and (B) TNF-a” for “suPAR”
The effect of LA1 on TLR-stimulation dependent pro-inflammatory pathways was studied by stimulating myeloid cells with different TLR-stimulants (lipopolysaccharide (LPS), Pam2CSK 4, imiquimod (IMQ)) or with phorbol 12-myristate 13-acetate (PMA) and co-treating with LA1. The levels of suPAR (pg/mL) and TNFa (pg/mL) in cell supernatant were measured 4 hours after treatment using ELISA. […] Relative gene expression was also assessed in myeloid cells treated with Poly(I:C), a known toll-like receptor (TLR) agonist, and co-treated with LA1.

[2] = test system: TLR7 mediated pathways; test: Relative gene expression (RT-PCR) in myeloid cells stimulated with imiquimod; format: cell-based; conditions: IMQ (20 ug/mL) and LA1 (20 uM) co-treatment, 4 hours
Protocol: FIG. 3A illustrates transcriptional levels of biomarker IL-1b in myeloid cells after 4 hours of treatment with vehicle DMSO (UT), LA1 (20 uM), imiquimod (IMQ) (20 ug/mL), or IMQ and LA1 co-treatment. Bars show mean with SD (N=3) (*P<0.05, **P<0.01, ***P<0.001, ***P<0.0001).
FIG. 3B illustrates transcriptional levels of biomarker uPAR in myeloid cells after 4 hours of treatment with vehicle DMSO (UT), LA1 (20 uM), imiquimod (IMQ) (20 ug/mL), or IMQ and LA1 co-treatment. Bars show mean with SD (N=3) (*P<0.05, **P<0.01, ***P<0.001, ***P<0.0001).
FIG. 3C illustrates transcriptional levels of biomarker IL-6 in myeloid cells after 4 hours of treatment with vehicle DMSO (UT), LA1 (20 uM), imiquimod (IMQ) (20 ug/mL), or IMQ and LA1 co-treatment. Bars show mean with SD (N=3) (*P<0.05, **P<0.01, ***P<0.001, ***P<0.0001).
FIG. 3D illustrates transcriptional levels of biomarker NLRP3 in myeloid cells after 4 hours of treatment with vehicle DMSO (UT), LA1 (20 uM), imiquimod (IMQ) (20 ug/mL), or IMQ and LA1 co-treatment. Bars show mean with SD (N=3) (*P<0.05, **P<0.01, ***P<0.001, ***P<0.0001).
The impact of CD11b activation by LA1 on TLR7 mediated pathways was assessed by treating myeloid cells with imiquimod (IMQ), a known TLR7 stimulant, and co-treating myeloid cells with IMQ and LA1. Relative gene expression of various biomarkers was assessed by RT-PCR.

[3] = test system: TLR7 mediated pro-inflammatory biomarkers; test: Secretion of pro-inflammatory biomarkers from myeloid cells stimulated with imiquimod (ELISA); format: cell-based; conditions: IMQ (20 ug/mL) and LA1 (20 uM) co-treatment, 4 hours
Protocol: FIG. 5A illustrates the levels of biomarker IL-1b secretion in myeloid cells after 4 hours of treatment with vehicle DMSO (UT), LA1 (20 uM), Imiquimod (IMQ) (20 ug/mL), or IMQ and LA1 co-treatment. Bars show mean with SD (N=3) (*P<0.05, **P<0.01, ***P<0.001, ***P<0.0001).
FIG. 5B illustrates the levels of biomarker suPAR secretion in myeloid cells after 4 hours of treatment with vehicle DMSO (UT), LA1 (20 uM), Imiquimod (IMQ) (20 ug/mL), or IMQ and LA1 co-treatment. Bars show mean with SD (N=3) (*P<0.05, **P<0.01, ***P<0.001, ***P<0.0001).
FIG. 5C illustrates the levels of biomarker IL-6 secretion in myeloid cells after 4 hours of treatment with vehicle DMSO (UT), LA1 (20 uM), Imiquimod (IMQ) (20 ug/mL), or IMQ and LA1 co-treatment. Bars show mean with SD (N=3) (*P<0.05, **P<0.01, ***P<0.001, ***P<0.0001).
FIG. 5D illustrates the levels of biomarker TNFalpha secretion in myeloid cells after 4 hours of treatment with vehicle DMSO (UT), LA1 (20 uM), Imiquimod (IMQ) (20 ug/mL), or IMQ and LA1 co-treatment.
FIG. 5E illustrates the levels of biomarker IFN-b secretion in myeloid cells after 4 hours of treatment with vehicle DMSO (UT), LA1 (20 uM), Imiquimod (IMQ) (20 ug/mL), or IMQ and LA1 co-treatment. Bars show mean with SD (N=3) (*P<0.05, **P<0.01, ***P<0.001, ****P<0.0001).
The concentration of TLR7 mediated pro-inflammatory biomarkers in untreated myeloid cells, myeloid cells treated with LA1, myeloid cells treated with IMQ, and myeloid cells co-treated with IMQ and LA1 was assessed by ELISA.

[4] = test system: MRL/lpr mice; test: MRL/lpr mouse model of lupus and LN: alopecia and skin lesions; format: in vivo; conditions: for alopecia (nose area): Mrl/lpr mice
Text: FIG. 13B illustrates percentage of skin effected by alopecia on the nose area of untreated mice (Ctrl), mice treated with a vehicle (Veh), and mice treated with LA1 (LA1). […] Bars show mean +/−SEM (n=5).
FIG. 13C illustrates lesion size (mm) in untreated mice (Ctrl), mice treated with a vehicle (Veh), and mice treated with LA1 (LA1). […] Bars show mean +/−SEM (n=5).
To evaluate the efficacy of LA1 as a treatment for LN, MRL/ipr mouse models were used. MRL/lpr mice develop high circulating levels of IFN-I, systemic inflammation and multi-organ pathology, including skin, vascular, and kidney damage, and LN. Thus, this genetic mouse model mimics several features of human lupus and LN.

O=C(O)c1ccc(-c2ccc(/C=C3\SC(=S)N(Cc4ccccc4)C3=O)o2)cc1 [LA1, (Z)-4-(5-((3-benzyl-4-oxo-2-thioxothiazolidin-5-ylidene)methyl)furan-2-yl)benzoic acid]
levels of biomarker TNFa in cell supernatant [1]: significantly reduced
levels of biomarker suPAR in cell supernatant [1]: significantly reduced
TLR7-dependent increase in IL-1b expression level [2]: significantly reduced
TLR7-dependent increase in IL-6 expression level [2]: significantly reduced
TLR7-dependent increase in NLRP3 expression level [2]: significantly reduced
TLR7-dependent increase in uPAR expression level [2]: significantly reduced
TLR7-dependent increase in IL-1b level (ELISA) [3]: significantly reduced
TLR7-dependent increase in IL-6 level (ELISA) [3]: significantly reduced
TLR7-dependent increase in TNF-a level (ELISA) [3]: significantly reduced
TLR7-dependent increase in uPAR level (ELISA) [3]: significantly reduced
skin lesions ([4]; Mrl/lpr mice treated with LA1, co-treatment and delayed treatment): reduces clinical symptoms
alopecia (nose area) ([4]; LA1 as co-treatment): reduction in alopecia
alopecia (nose area) ([4]; LA1 treatment after 2-weeks of disease onset): reduction in alopecia
